# According to patent US20020192159A1, “Single-patient drug trials used with accumulated database: flowchart” (priority 2001, published 2002):
# Counter-ions that a name gives are not always drawn.
# Key:
# [1] = system: patient with perennial allergic rhinitis; settings: for incidence of sedation: day 4 of treatment
# individual patient = assay: SPAS abuse potential test (liking score vs placebo or comparator); settings: for liking score difference vs placebo: person
# Procedure: Single-patient drug kits can be designed to test for “liking scores,” “abuse potential scores,” and patient's desire to re-use the test article compared to placebo and positive controls.
# In this example, the abuse potential of the narcotic analgesic codeine is tested. A single-patient trial is conducted in a patient for whom treatment with codeine is deemed appropriate. The patient receives a SPAS test kit containing codeine, an alternative drug, e.g., ibuprofen and a questionnaire designed to elicit the liking score, desirability to re-use test article and abuse potential of the patient to codeine.
# In another example, in follow-up to the test above, the clinician compares diazepam to secobarbital in the same patient.
# [2] = system: previously tested similar patients; assay: follow-up of previously tested similar patients in the database (addiction / smoking)
# [3] = system: hyperactive child (Minimum Brain Dysfunction or Attention Deficit Disorder); assay: SPAS single-patient drug trial of methylphenidate vs placebo
# Procedure: The usefulness of methylphenidate (Ritalin) treatment in a hyperactive child (Minimum Brain Dysfunction or Attention Deficit Disorder) is evaluated.
# Technology: Consists of instructions, “calendar” packaging for drug and a substantially identical looking placebo to assure appropriate dosing and monitoring of compliance, questionnaires and assessment forms and instructions. […] Results are mailed to the physician and, in this case, parent for use in evaluating the usefulness of the therapy. The physician and parent are contacted, e.g., every three months to provide data on therapies utilized, and perceived outcome, until the condition is resolved.
# The questionnaire portion of the kit includes an initial consent form for the parent or guardian to complete. The questionnaire also provides background information on the study and possible side effects associated with the medication. Also included therein is a form for providing relevant patient and family histories. More importantly, the questionnaire, in this case includes a portion for the weekly input by parents/guardians and school observers for answers to questions relating to the drug evaluation. Physician questionnaires are similarly arranged.
# The trial calls for 40 mg to be given daily as 10 mg four times daily compared to identical appearing placebo which is also given four times daily. After completing the trial and questionnaire, the data is processed to statistically determine the results.
# [4] = system: patients with the same disorder (hyperactive child); assay: pooled SPAS data and follow-up of patients continued on methylphenidate 40 mg daily; assay type: in vivo, human
# Procedure: All results obtained from the data are compared against the results provided by data amassed from a pool of about 200 patients with the same disorder. If, of these 200 patients, 55 experience encouraging results (along with the current patient) they are continued on 40 mg daily treatment. If, of these 55 patients, 5 are lost to follow-up, with 50 remaining for prospective evaluation, the physician continues the patient on 40 mg methylphenidate daily based solely on the isolated SPAS single-patient drug trial results. The physician then reviews the pooled data on the 50 patients. This will be done to understand under what circumstances this individual patient is likely to continue to show benefit from methylphenidate 40 mg treatment, and what conditions lead to treatment failure.
# If for example, the pool of 50 patients who continue treatment have the following scores following the original SPAS testing:
# All 50 patients are followed up by telephone interview monthly for nine months or more, and outcomes are prospectively documented.
# The continuing validation process using pooled data, which is a subject of this invention, provides additional data essential to formulating a rational therapeutic decision.
# hypertensive person = assay: double-blind single-patient trial of verapamil as therapeutic alternative to propranolol; assay type: in vivo, human; settings: for mean systolic blood pressure increases: end of six week trial, verapamil SR 240 mg vs propranolol SR 180 mg once daily, statistically insignificant; for mean systolic blood pressure increases / mean diastolic pressure: little difference between drugs; for mean diastolic pressure: throughout six week trial
# Procedure: In this example, the validity of using a sustained release formulation of verapamil 240 mg once daily as a therapeutic alternative to sustained release propranolol 180 mg once daily in a hypertensive person is shown. The trial during which the two medications are randomly administered in a double-blind manner is six weeks. The questionnaire used is set up in a manner similar to that described in above examples except that the questions elicit information related to the disease of hypertension. Blood pressure and adverse event reports are taken daily by the patient. […] Sleepiness is reported at equal rates for both drugs. All values are statistically insignificant and the therapeutic alternative selection is objectively validated.
# [5] = patients with statistically altered sleep patterns, within two months
# [6] = pool of 50 patients who continue treatment
structure (smiles),measurement,setting,value
"CCOC(=O)N1CCC(=C2c3ccc(Cl)cc3CCc3cccnc32)CC1 [CL, loratidine]",incidence of sedation,[1]; person,2 on a 3 point scale
"CN(C)CCC(c1ccc(Cl)cc1)c1ccccn1 (centres unmarked) [CM, chlorpheniramine maleate]",patient's symptoms at reevaluation,[1]; 6 and 12 months post-initiation of CM treatment,well maintained
same,similar patients well maintained during a year long follow-up,[1]; database patients placed on CM after single-patient trials,37 of the 40
same,incidence of sedation,[1]; person,2 on a 3 point scale
same,"control of most bothersome symptom, sneezing","[1]; person, perennial allergic rhinitis",similarly and effectively controlled
COc1ccc2c3c1O[C@H]1[C@@H](O)C=C[C@H]4[C@@H](C2)N(C)CC[C@@]341 [codeine],liking score,individual patient; patient on codeine,3 out of 5
same,liking score difference vs placebo,individual patient; statistically significant (Bayesian feedback),2 units
same,patients who became addicted,[2]; Caucasian female patients 30 to 40 years with similar 0 unit difference,10 out of 1250
same,patients who became addicted,"[2]; black male patients 40 to 50 years old with similar 2-unit difference, treated with codeine",25 out of 600
same,patients who became addicted,"[2]; similar patients with 2 unit differences, within three months",Twenty
same,patients who became addicted,[2]; similar patients with 3 unit differences,50 out of 110
CN1C(=O)CN=C(c2ccccc2)c2cc(Cl)ccc21 [diazepam],liking score,individual patient; patient on diazepam,4 out of 5
same,liking score difference vs placebo,individual patient; not statistically significant,0 units
same,level of addiction on follow-up of similar patients,[2],comparatively low level of addiction
COC(=O)C(c1ccccc1)C1CCCCN1 (centres unmarked) [methylphenidate],patient's attention span,"[3]; 40 mg daily as 10 mg four times daily vs placebo, methylphenidate periods",improved substantially
same,sleep patterns,"[3]; 40 mg daily, methylphenidate periods",statistically altered
same,teacher comments,[3]; methylphenidate dosing periods,corroborate improved attention span
same,"follow-up outcome, patients with no statistically altered sleep disturbances","[4]; monthly telephone interview for nine months or more, 40 mg daily",well maintained
same,patients who experience encouraging results,[4]; of a pool of about 200 patients with the same disorder,55
same,patients experiencing grand mal seizures,[4]; [5],two
same,patients showing severe episodes of bizarre behaviors,[4]; [5],90%
same,Sleep Patterns: have been statistically altered,[4]; [6],50% have been statistically altered
same,Sleep Patterns: have not been statistically altered,[4]; [6],50% have not been statistically altered
same,Teacher Comments: corroborate improved attention span,[4]; [6],80% corroborate improved attention span
same,Teacher Comments: do not corroborate improved attention span,[4]; [6],20% do not corroborate improved attention span
same,Attention Span: have substantial improvement,"[4]; pool of 50 patients who continue treatment, scores following original SPAS testing",100% have substantial improvement
same,"follow-up outcome, patients with statistically altered sleep patterns","[4]; within two months, 40 mg daily",loss of symptom control
CN1CCCC1c1cccnc1 (centres unmarked) [nicotine],liking score,"individual patient; on average, patient receiving nicotine",4 out of 5
same,liking score difference vs placebo,individual patient; statistically significant,3 units
same,patients who are smokers,[2]; female Caucasian patients 15 to 17 years old with similar 3-unit difference,820 out of 975
CC(C)NCC(O)COc1cccc2ccccc12 (centres unmarked) [propranolol],mean systolic blood pressure increases,hypertensive person,3%
same,sleepiness reported,"hypertensive person; human, in vivo",equal rates
same,mean diastolic pressure,hypertensive person,essentially stable
C=CCC1(C(C)CCC)C(=O)NC(=O)NC1=O (centres unmarked) [secobarbital],"difference in liking scores, diazepam vs secobarbital","individual patient; same person, statistically significant difference",greater addiction potential
same,level of addiction on follow-up of similar patients,[2],high level of addiction
COc1ccc(CCN(C)CCCC(C#N)(c2ccc(OC)c(OC)c2)C(C)C)cc1OC (centres unmarked) [verapamil],mean systolic blood pressure increases,hypertensive person,3%
same,sleepiness reported,"hypertensive person; six week trial, both drugs",equal rates
same,mean diastolic pressure,hypertensive person,essentially stable
